PubChem BioAssay (NCI)
Values joined by “and” are separate entries in the source; they are usually repeats but may differ in a detail not shown here. Identical values can stand only once.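 A five-concentration, 48-hour dose response in 96-well plates underlies each endpoint, interpolated linearly between surrounding concentrations. GI50: concentration for 50% inhibition of growth. TGI: total growth inhibition.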

Key:
Test in all cases: growth of human tumour cells (NCI), 48 h
PC-3 prostate = tested on: PC-3 prostate
HCC-2998 colon = tested on: HCC-2998 colon
UACC-62 melanoma = tested on: UACC-62 melanoma
SK-MEL-5 melanoma = tested on: SK-MEL-5 melanoma
CCRF-CEM leukemia = tested on: CCRF-CEM leukemia
SK-MEL-28 melanoma = tested on: SK-MEL-28 melanoma
BT-549 breast = tested on: BT-549 breast
M19-MEL melanoma = tested on: M19-MEL melanoma
NCI-H226 lung = tested on: NCI-H226 lung
LXFL 529 NSCLC = tested on: LXFL 529 NSCLC

Row | Structure (SMILES) | GI50 (PC-3 prostate) | TGI (PC-3 prostate) | GI50 (HCC-2998 colon) | TGI (HCC-2998 colon) | GI50 (UACC-62 melanoma) | TGI (UACC-62 melanoma) | GI50 (SK-MEL-5 melanoma) | TGI (SK-MEL-5 melanoma) | GI50 (CCRF-CEM leukemia) | TGI (CCRF-CEM leukemia) | GI50 (SK-MEL-28 melanoma) | TGI (SK-MEL-28 melanoma) | GI50 (BT-549 breast) | TGI (BT-549 breast) | GI50 (M19-MEL melanoma) | TGI (M19-MEL melanoma) | GI50 (NCI-H226 lung) | TGI (NCI-H226 lung) | TGI (LXFL 529 NSCLC)
1 | O=C1NC(=O)C2C3C=CC(C12)C1C2C(=O)NC(=O)C2C31 (centres undefined) | 525 µM | 250 µM and > 1000 µM | > 587 µM | 250 µM and > 1000 µM | 636 µM | 227 µM and > 1000 µM | 389 µM | 224 µM and > 756 µM | 237 µM | 250 µM and > 1000 µM | 938 µM | 244 µM and > 1000 µM | 313 µM | > 1000 µM | 98.2 µM | 250 µM | > 484 µM | 250 µM and > 762 µM | 
2 | CNS(=O)(=O)NNS(=O)(=O)c1ccc(C)cc1 |  |  |  | > 100 µM |  | > 100 µM |  | > 100 µM |  | > 100 µM |  | > 100 µM |  |  |  | > 100 µM |  |  | 
3 | CC(C)(C)c1ccc(OCCOCCOc2ccc(C(C)(C)C)cc2S(N)(=O)=O)c(S(N)(=O)=O)c1 |  |  |  | > 100 µM |  | > 100 µM |  | > 100 µM |  | > 100 µM |  | > 100 µM |  |  |  | > 100 µM |  | > 100 µM | 
4 | N#Cc1c(CC(=O)O)cc(=O)n2c1[nH]c1ccccc12 |  |  |  | > 100 µM |  |  |  | > 100 µM |  |  |  | > 100 µM |  |  |  | > 100 µM |  | > 100 µM | 
5 | O=C(CC1(O)C(=O)Nc2c(Cl)ccc(Cl)c21)c1ccc(Cl)cc1 (centres undefined) |  |  |  | 71 µM |  | 48.9 µM |  |  |  |  |  | > 100 µM |  |  |  | 33.3 µM |  | > 100 µM | 88.9 µM
6 | Cn1cc(-c2ccc3c(c2)ncn3-c2cc(NS(=O)(=O)C3CC3)cc(-c3ccc(F)cc3F)c2)cn1 | 5.97 µM | > 100 µM | 22.7 µM | 80.1 µM | 25.5 µM | 73.1 µM | 13.1 µM | 32 µM | 7.5 µM | > 100 µM | 20.9 µM | > 100 µM | 4.22 µM | 56.7 µM |  |  | 27 µM | 94.4 µM | 
7 | Cc1ccc(-c2nc([P+](c3ccccc3)(c3ccccc3)c3ccccc3)c(N3CCOCC3)o2)cc1 | 0.315 µM | 3.72 µM | 0.517 µM | 6.87 µM | 0.35 µM | 1.45 µM | 0.314 µM | 1.03 µM | 0.588 µM | 11.3 µM | 0.515 µM | 9.18 µM | 0.381 µM | 5.14 µM |  |  | 0.724 µM | 8.03 µM | 
8 | CCCCCCCCCCCCOC1C(C(COC2OC(C(O)CO)C3OC(C)(C)OC23)OC(=O)Nc2ccccc2)OC2OC(C)(C)OC21 (centres undefined) | 3.57 µM | 13.1 µM | 5.39 µM | 10.4 µM | 10.5 µM | 22.5 µM | 8.55 µM | 25.6 µM |  | 6.66 µM | 7.24 µM | 19.3 µM | 10.5 µM | 23.8 µM |  |  | 11.8 µM | 26.4 µM | 
